Values after ≈ are worked out from the molar mass of the structure shown.
Columns and labels:
Experiment in all cases: MIC test, standard agar dilution method
[1] = system: Staphylococcus epidermidis (UC 12084); assay type: cell-based; details: UC12084, incubated overnight at 35°C, read-out: Minimum Inhibitory Concentrations (MIC) S. enidermidis
Staphylococcus aureus = details: UC9213, read-out: Minimum Inhibitory Concentrations (MIC) S. aureus
[2] = system: Streptococcus pyogenes (UC 152); details: UC152, read-out: Minimum Inhibitory Concentrations (MIC) S. pyogenes

Q: Which results are given for `CC(=O)NC[C@H]1CN(c2ccc(N3CCC4(CC3)OCCN4C(=O)CO)c(F)c2)C(=O)O1` [Compound No. 54, (S)-N-(3-{3-fluoro-4-[4-(2-hydroxy-acetyl)-1-oxa-4,8-diaza-spiro[4.5]dec-8-yl]-phenyl}-2-oxo-oxazolidin-5-ylmethyl)-acetamide]?
A: MIC [1]: 4 µg/mL (≈ 8.88 µM); MIC (Staphylococcus aureus): 16 µg/mL (≈ 35.5 µM); MIC [2]: 4 µg/mL (≈ 8.88 µM)

Q: For `CC(=O)NC[C@H]1CN(c2ccc(N3CCC(C4(C)OCCO4)CC3)c(F)c2)C(=O)O1` [Compound No. 35, (S)-N-(3-{3-fluoro-4-[4-(2-methyl-[1,3]dioxolan-2-yl)-piperidin-1-yl]-phenyl}-2-oxo-oxazolidin-5-ylmethyl)-acetamide], which MIC [1] is on record?
A: Its MIC is 2 µg/mL (≈ 4.75 µM).

Q: And the MIC (Staphylococcus aureus)?
A: The MIC was 8 µg/mL (≈ 19 µM).

Q: What about the MIC [2] of the same molecule?
A: Its MIC is 2 µg/mL (≈ 4.75 µM).

Q: With `COC(=O)CON=C1CCN(c2ccc(N3C[C@H](CNC(C)=O)OC3=O)cc2F)CC1` [compound 47, (S)-(1-{4-[5-(acetylamino-methyl)-2-oxo-oxazolidin-3-yl]-2-fluoro-phenyl}-piperidin-4-ylideneaminooxy)-acetic acid methyl ester] as the molecule, how does the MIC [1] read?
A: The MIC was 1 µg/mL (≈ 2.29 µM).

Q: And the MIC (Staphylococcus aureus)?
A: The MIC was 8 µg/mL (≈ 18.3 µM).

Q: And the MIC [2]?
A: Its MIC is 2 µg/mL (≈ 4.58 µM).

Q: Which results are given for `CC(=O)NC[C@H]1CN(c2ccc(N3CCC(=O)C(CO)C3)c(F)c2)C(=O)O1` (stereo partly drawn) [Compound No. 37, (S)-N-{3-[3-fluoro-4-(3-hydroxymethyl-4-oxo-piperidin-1-yl)-phenyl]-2-oxo-oxazolidin-5-ylmethyl}-acetamide]?
A: MIC [1]: 2 µg/mL (≈ 5.27 µM); MIC (Staphylococcus aureus): 8 µg/mL (≈ 21.1 µM); MIC [2]: 2 µg/mL (≈ 5.27 µM)

Q: What does the source list for `CC(=O)NC[C@H]1CN(c2ccc(N3CCC(=NN)CC3)c(F)c2)C(=O)O1` [compound 46, (S)-N-{3-[3-fluoro-4-(4-hydrazono-piperidin-1-yl)-phenyl]-2-oxo-oxazolidin-5-ylmethyl}-acetamide]?
A: MIC [1]: 0.5 µg/mL (≈ 1.38 µM); MIC (Staphylococcus aureus): 2 µg/mL (≈ 5.5 µM); MIC [2]: 2 µg/mL (≈ 5.5 µM)

Q: What does the source list for `CC(=O)NC[C@H]1CN(c2ccc(N3CCC(CC4(C)OCCO4)CC3)c(F)c2)C(=O)O1` [Compound No. 32, (S)-N-(3-{3-fluoro-4-[4-(2-methyl-[1,3]dioxolan-2-ylmethyl)-piperidin-1-yl]-phenyl}-2-oxo-oxazolidin-5-ylmethyl)-acetamide]?
A: MIC [1]: 4 µg/mL (≈ 9.18 µM); MIC (Staphylococcus aureus): 16 µg/mL (≈ 36.7 µM); MIC [2]: 4 µg/mL (≈ 9.18 µM)

Q: What does the source list for `COC(=O)[C@H]1CN(c2ccc(N3CC(CNC(C)=O)OC3=O)cc2F)CCC1=O` (stereo partly drawn) [Compound No. 34, (S)-1-{4-[5-(acetylamino-methyl)-2-oxo-oxazolidin-3-yl]-2-fluoro-phenyl}-4-oxo-piperidin-3-carboxylic acid methyl ester]?
A: MIC [1]: 4 µg/mL (≈ 9.82 µM); MIC (Staphylococcus aureus): 16 µg/mL (≈ 39.3 µM); MIC [2]: 4 µg/mL (≈ 9.82 µM)

Q: How did the MIC [1] turn out when `CC(=O)NC[C@H]1CN(c2ccc(N3CCC(N)CC3)c(F)c2)C(=O)O1` [Compound No. 6, (S)-N-{3-[4-(4-amino-piperidin-1-yl)-3-fluoro-phenyl]-2-oxo-oxazolidin-5-ylmethyl}-acetamide] was run?
A: The MIC was 32 µg/mL (≈ 91.3 µM).

Q: What about the MIC (Staphylococcus aureus) of the same molecule?
A: The MIC was > 64 µg/mL.

Q: And the MIC [2]?
A: Its MIC is 1 µg/mL (≈ 2.85 µM).

Q: With `CC(=O)NC[C@H]1CN(c2ccc(N3CCC(=NOC(=O)COC(C)=O)CC3)c(F)c2)C(=O)O1` [compound 43, (S)-N-{3-[3-fluoro-4-(4-acetoxyacetoxyimino-piperidin-1-yl)-phenyl]-2-oxo-oxazolidin-5-ylmethyl}-acetamide] as the molecule, how does the MIC [1] read?
A: The MIC was 0.5 µg/mL (≈ 1.08 µM).

Q: And the MIC (Staphylococcus aureus)?
A: The MIC was 4 µg/mL (≈ 8.61 µM).

Q: What about the MIC [2] of the same molecule?
A: The MIC was 1 µg/mL (≈ 2.15 µM).

Q: For `CC(=O)NC[C@H]1CN(c2ccc(N3CCC(=NNC(=N)N)CC3)c(F)c2)C(=O)O1` [compound 42, (S)-N-{3-[3-fluoro-4-(4-amidinohydrazono-piperidin-1-yl)-phenyl]-2-oxo-oxazolidin-5-ylmethyl}-acetamide], which MIC [1] is on record?
A: Its MIC is 2 µg/mL (≈ 4.93 µM).

Q: What about the MIC (Staphylococcus aureus) of the same molecule?
A: Its MIC is 8 µg/mL (≈ 19.7 µM).

Q: And the MIC [2]?
A: The MIC was 0.5 µg/mL (≈ 1.23 µM).

Q: Which results are given for `CC(=O)NC[C@H]1CN(c2ccc(N3CCC(=NNC(=O)CO)CC3)c(F)c2)C(=O)O1` [compound 50, (S)-N-[3-(3-fluoro-4-{4-[(2-hydroxy-acetyl)-hydrazono]-piperidin-1-yl}-phenyl)-2-oxo-oxazolidin-5-ylmethyl]-acetamide]?
A: MIC [1]: 4 µg/mL (≈ 9.49 µM); MIC (Staphylococcus aureus): 16 µg/mL (≈ 38 µM); MIC [2]: 4 µg/mL (≈ 9.49 µM)

Q: `CC(=O)NC[C@H]1CN(c2ccc(N3CCC(Nc4nccs4)CC3)c(F)c2)C(=O)O1` [Compound No. 63, (S)-N-(3-{3-fluoro-4-[4-(thiazol-2-ylamino)-piperidin-1-yl]-phenyl}-2-oxo-oxazolidin-5-ylmethyl)-acetamide] was tested. Which MIC [1] did it give?
A: Its MIC is 2 µg/mL (≈ 4.61 µM).

Q: What about the MIC (Staphylococcus aureus) of the same molecule?
A: The MIC was 16 µg/mL (≈ 36.9 µM).

Q: And the MIC [2]?
A: Its MIC is 2 µg/mL (≈ 4.61 µM).

Q: For `CC(=O)NC[C@H]1CN(c2ccc(N3CCC(=Nn4cnnc4)CC3)c(F)c2)C(=O)O1` [compound 51, (S)-N-(3-{3-fluoro-4-[4-([1,2,4]triazol-4-ylimino)-piperidin-1-yl]-phenyl}-2-oxo-oxazolidin-5-ylmethyl)-acetamide], which MIC [1] is on record?
A: Its MIC is 1 µg/mL (≈ 2.41 µM).

Q: What about the MIC (Staphylococcus aureus) of the same molecule?
A: The MIC was 4 µg/mL (≈ 9.63 µM).

Q: What about the MIC [2] of the same molecule?
A: The MIC was 2 µg/mL (≈ 4.81 µM).

Q: What does the source list for `CC(=O)NC[C@H]1CN(c2ccc(N3CCC(C4(CO)OCCO4)CC3)c(F)c2)C(=O)O1` [Compound No. 44, (S)-N-(3-{3-fluoro-4-[4-(2-hydroxymethyl-[1,3]dioxolan-2-yl)-piperidin-1-yl]-phenyl}-2-oxo-oxazolidin-5-ylmethyl)-acetamide]?
A: MIC [1]: 2 µg/mL (≈ 4.57 µM); MIC (Staphylococcus aureus): 16 µg/mL (≈ 36.6 µM); MIC [2]: 24 µg/mL (≈ 54.9 µM)

Q: Which MIC [1] does the source give for `COC(=O)ON=C1CCN(c2ccc(N3C[C@H](CNC(C)=O)OC3=O)cc2F)CC1` [compound 38, (S)-N-{3-[3-fluoro-4-(4-methoxycarbonyloxyimino-piperidin-1-yl)-phenyl]-2-oxo-oxazolidin-5-ylmethyl}-acetamide] here?
A: The MIC was 0.5 µg/mL (≈ 1.18 µM).

Q: What about the MIC (Staphylococcus aureus) of the same molecule?
A: Its MIC is 2 µg/mL (≈ 4.73 µM).

Q: And the MIC [2]?
A: Its MIC is 1 µg/mL (≈ 2.37 µM).

Q: `CC(=O)NC[C@H]1CN(c2ccc(N3CCC(=NNCCO)CC3)c(F)c2)C(=O)O1` [compound 41, (S)-N-[3-(3-fluoro-4-{4-[(2-hydroxy-ethyl)-hydrazono]-piperidin-1-yl}-phenyl)-2-oxo-oxazolidin-5-ylmethyl]-acetamide] was tested. Which MIC [1] did it give?
A: The MIC was 0.5 µg/mL (≈ 1.23 µM).

Q: And the MIC (Staphylococcus aureus)?
A: The MIC was 4 µg/mL (≈ 9.82 µM).

Q: What about the MIC [2] of the same molecule?
A: The MIC was 1 µg/mL (≈ 2.45 µM).

Q: Which MIC [1] does the source give for `CC(=O)NC[C@H]1CN(c2ccc(N3CCC(=NN4CCOCC4)CC3)c(F)c2)C(=O)O1` [compound 40, (S)-N-(3-{3-fluoro-4-[4-(morpholin-4-ylimino)-piperidin-1-yl]-phenyl}-2-oxo-oxazolidin-5-ylmethyl)-acetamide] here?
A: Its MIC is 0.5 µg/mL (≈ 1.15 µM).

Q: And the MIC (Staphylococcus aureus)?
A: The MIC was 4 µg/mL (≈ 9.23 µM).

Q: What about the MIC [2] of the same molecule?
A: The MIC was 2 µg/mL (≈ 4.61 µM).

Q: For `C=CCON=C1CCN(c2ccc(N3C[C@H](CNC(C)=O)OC3=O)cc2F)CC1` [Compound No. 58, (S)-N-{3-[4-(4-allyloxyimino-piperidin-1-yl)-3-fluoro-phenyl]-2-oxo-oxazolidin-5-ylmethyl}-acetamide], which MIC [1] is on record?
A: Its MIC is 1 µg/mL (≈ 2.47 µM).

Q: What about the MIC (Staphylococcus aureus) of the same molecule?
A: Its MIC is 8 µg/mL (≈ 19.8 µM).

Q: What about the MIC [2] of the same molecule?
A: Its MIC is 2 µg/mL (≈ 4.95 µM).

Q: How did the MIC [1] turn out when `CC(=O)NC[C@H]1CN(c2ccc(N3CCC(NC(C)=O)CC3)c(F)c2)C(=O)O1` [compound 9, (S)-N-{3-[4-(4-acetylamino-piperidin-1-yl)-3-fluoro-phenyl]-2-oxo-oxazolidin-5-ylmethyl}-acetamide] was run?
A: Its MIC is 2 µg/mL (≈ 5.1 µM).

Q: What about the MIC (Staphylococcus aureus) of the same molecule?
A: Its MIC is 16 µg/mL (≈ 40.8 µM).

Q: And the MIC [2]?
A: The MIC was 4 µg/mL (≈ 10.2 µM).

Q: Which MIC [1] does the source give for `CC(=O)NC[C@H]1CN(c2ccc(N3CCC(N(C)C)CC3)c(F)c2)C(=O)O1` [Compound No. 67, (S)-N-{3-[4-(4-dimethylamino-piperidin-1-yl)-3-fluoro-phenyl]-2-oxo-oxazolidin-5-ylmethyl}-acetamide] here?
A: The MIC was 2 µg/mL (≈ 5.28 µM).

Q: What about the MIC (Staphylococcus aureus) of the same molecule?
A: The MIC was 32 µg/mL (≈ 84.6 µM).

Q: What about the MIC [2] of the same molecule?
A: The MIC was 1 µg/mL (≈ 2.64 µM).

Q: Which results are given for `COCOC1CCN(c2ccc(N3C[C@H](CNC(C)=O)OC3=O)cc2F)CC1` [compound 27, (S)-N-{3-[3-fluoro-4-(4-methoxymethoxy-piperidin-1-yl)-phenyl]-2-oxo-oxazolidin-5-ylmethyl}-acetamide]?
A: MIC [1]: 2 µg/mL (≈ 5.06 µM); MIC (Staphylococcus aureus): 8 µg/mL (≈ 20.2 µM); MIC [2]: 8 µg/mL (≈ 20.2 µM)
